# From article PMC5104769, “Concentration-Dependent Dual Mode of Zn Action at Serotonin 5-HT1A Receptors: In Vitro and In Vivo Studies” (Molecular neurobiology, 2015)
# What was measured:
# [1] = biological target: T1, human 5-HT1AR stably expressed in HEK293 cells (Homo sapiens, UniProt P08908); assay: Saturation binding of [3H]-8-OH-DPAT in the absence and presence of Zn; details: Zn vs [3H]-8-OH-DPAT, nonlinear regression of saturation data, equation 1
# T1 construct: The full-length human 5HTR1A complementary DNA (cDNA); membranes prepared from the cells
# T1 sequence (P08908 1-422): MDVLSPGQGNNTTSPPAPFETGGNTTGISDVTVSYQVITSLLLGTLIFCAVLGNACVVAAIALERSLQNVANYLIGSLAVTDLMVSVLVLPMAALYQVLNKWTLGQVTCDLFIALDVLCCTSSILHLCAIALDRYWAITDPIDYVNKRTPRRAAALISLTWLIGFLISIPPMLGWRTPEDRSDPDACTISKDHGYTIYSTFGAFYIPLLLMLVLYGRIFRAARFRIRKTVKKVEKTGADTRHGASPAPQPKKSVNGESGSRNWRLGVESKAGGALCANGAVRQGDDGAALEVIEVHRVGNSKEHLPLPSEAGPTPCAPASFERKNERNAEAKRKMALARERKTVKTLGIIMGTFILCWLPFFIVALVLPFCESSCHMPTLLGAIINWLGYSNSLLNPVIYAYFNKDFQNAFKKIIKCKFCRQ
# Description: The full-length human 5HTR1A complementary DNA (cDNA), which was cloned into the mammalian expression vector pcDNA3.1(+), was obtained from the Missouri S&T cDNA Resource Center (www.cdna.org). The receptor cDNA was stably transfected into human embryonic kidney cells (HEK293, ATCC) with the use of Lipofectamine 2000 (Invitrogen).
# Cell pellets were thawed and homogenized in 20 volumes of 50 mM Tris–HCl buffer (pH 7.7) containing 0.1 mM EDTA and 10 mM MgCl2, using an Ultra Turrax tissue homogenizer. The pellets were then centrifuged twice at 35,000g for 20 min at 4 °C, with incubation for 15 min at 37 °C in between centrifugations. Membranes were aliquoted in tubes. Membrane protein concentrations were determined using the Pierce™ Coomassie (Bradford) Protein Assay Kit, with bovine serum albumin (BSA) as a standard.
# The incubation buffer consisted of 50 mM Tris–HCl (pH 7.7), 10 mM MgCl2, 10 mM pargyline and 0.1 % ascorbic acid. Radioligand binding assays were performed by incubating 30 μg of protein of the membrane suspension in 96-well microtitre plates for 60 min at room temperature with shaking, in a total volume of 200 μl. The binding reactions were stopped by filtration through GF/C Unifilter plates using a harvester (PerkinElmer). The plate filters were dried, and 20 μl of Ultima Gold MV (PerkinElmer) was added. Radioactivity was measured using a MicroBeta TriLux counter (PerkinElmer).
# All experiments were performed in triplicate, and the results were obtained from at least three independent experiments. The data are expressed as the mean±S.D. (standard deviation). The experimental data were analysed using GraphPad Prism 5.1 for Windows (GraphPad Software, San Diego California USA, www.graphpad.com).
# [2] = system: Sprague Dawley rats; assay: Forced swim test (FST) in rats; format: in vivo, rat
# Description: The test was carried out according to the method described previously [10]. On day one of the experiment, the animals were individually placed in plexiglass cylinders (40 cm in height, 18 cm in diameter), containing 25 cm of water maintained at 24–25 °C for a 15-min habituation period. After the rats were removed from the water, they were again placed in their home cages. On the second day, the rats were again placed in the cylinders, and the total duration of immobility was measured for a 5-min test period. Zn (1 or 2 mg Zn/ kg, given as Zn hydroaspartate) and 8-OH-DPAT (0.1 or 0.3 mg/kg) were administered alone or jointly 30 min before the test. WAY-100635 (0.1 mg/kg) was administered 15 min before the Zn treatment.
# [3] = system: 5-HT3 receptor; parameters: method as in PMID 7620711; details: electrophysiology, cited from earlier work
# [4] = system: β2 adrenergic receptors; parameters: method as in PMID 11752207; details: cited from earlier work
# [5] = system: 5-HT1A autoreceptor KO mice; assay: Forced swim test (FST) in wild-type and 5-HT1A autoreceptor KO mice; format: in vivo, mouse; details: Zn 5 mg/kg 30 min before FST
# Source text: (§1) A conditional knockout approach was used to eliminate the 5-HT1AR in the raphe nuclei in adult mice. To create the conditional 5-HT1AR knockout mice, a TPH2-Cre-ER^T2 mouse line was crossed with a flx-5-HT1A-YFP mouse line. The TPH2-Cre-ER^T2 confers specificity such that only serotonin neurons, which express tryptophan hydroxylase 2 (TPH2), can express Cre recombinase to knockout the 5-HT1AR gene and allow for […] expression. Once the mice reached adulthood (approximately 5–6 postnatal weeks), tamoxifen (180 mg/kg) was injected i.p. every day for five consecutive days (the tamoxifen binds to the ER^T2 domain and enables Cre to enter the nucleus where it can excise the 5-HT1AR gene, allowing for YFP expression as a marker of recombination). The mice were then left undisturbed for at least 14 days to allow for recombination and the turnover of endogenous 5-HT1ARs.
# The behaviour of the mice in the water was recorded using a video camera. The test was performed under red lighting. The cylinder was filled with almost 4 l of water, to a depth that exceeded the distance to which the tail could extend, so the mouse could not balance on its tail at the bottom of the cylinder. […] The mice were placed in the individual glass cylinder (22 cm diameter×37 cm high) for a standard 6-min test; however, the total duration of immobility from the last 4 min of the test was analysed. […]
# [6] = parameters: method as in PMID 20617034; details: cited from earlier work
# [7] = Body temperature in wild-type and 5-HT1A autoreceptor KO mice; format: in vivo, mouse; details: Zn 5 mg/kg (Zn chloride), 30 and 60 min
# Source text: as §1
# A separate experiment was performed to measure the effect of Zn on rectal body temperature in wild-type and 5-HT1A autoreceptor KO mice; however, in this experiment, only the higher dose of Zn (5 mg Zn/kg; Zn chloride, Sigma) was used.
# [8] = Body temperature in mice; format: in vivo, mouse; details: Zn 2 and 5 mg/kg i.p., 30 and 60 min after administration
# Description: The experiments were performed on male Albino Swiss mice (23-25 g) and Sprague Dawley rats (200-250 g) from Charles River, Germany as well as […]-flx-YFP mice from Jackson Labs, Bangor ME and the Hen lab, respectively. The animals were kept under standard laboratory conditions with respect to lighting (light phase 7:00-19:00) and temperature (19-21 °C). Food and water were freely available. Each experimental group consisted of eight to ten animals. All of the animals were experimentally naive and were used only once in each test. The experiments were performed during the light period (9:00-14:00 h). All of the procedures were conducted according to the guidelines of the National Institutes of Health Animal Care and Use Committee and were approved by the Ethics Committees of the Institute of Pharmacology, Polish Academy of Sciences in Krakow and the Animal Care Committee, University of Ottawa. […] Controls were treated with the appropriate diluent, which was indicated as VEH on the graphs and in the tables. […] The results were expressed as a change in body temperature with respect to the basal body temperature, which was measured at the beginning of the experiments.
smiles,measurement,setting,value
"[Zn+2] [Zn, Zinc]",cooperativity factor α,[1],0.37
same,immobility time in the FST,"[2]; Zn 1 mg/kg, 30 min before test (Fig. 5a)",not 1 mg/kg significantly decreased the immobility time
same,immobility time in the FST,"[2]; Zn 2 mg/kg, 30 min before test (Fig. 5a)",significantly decreased the immobility time
same,immobility time in the FST,[2]; Zn 2 and 5 mg/kg (Fig. 5b),significantly decreased the immobility time
same,immobility time in the FST,"[2]; Zn given jointly with 8-OH-DPAT at doses ineffective alone, vs VEH",significantly decreased the immobility time
same,Zn concentrations that depressed the 5-HT-induced response,[3]; high concentrations,30 to 200 µM
same,Zn concentrations that enhanced the 5-HT-induced response,[3]; low concentrations,0.3 to 10 µM
same,effect on agonist affinity,[4]; 5 μM of Zn,enhanced agonist affinity
same,effect on antagonist binding,[4]; 500 μM of Zn,inhibited antagonist binding
same,decrease in the immobility time,"[5]; 5-HT1A autoreceptor KO mice, vs VEH-treated KO mice",30%
same,immobility time in the FST,[5]; wild-type mice,significant decrease in immobility time
same,extracellular Zn level reported as neurotoxic,[6],over 300 μM
same,change in body temperature,[7],decreased the body temperature of the wild-type mice
same,change in body temperature,[8],significantly and dose-dependently decreased body temperature
